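Step 1: Grow cells in 96-well plates. Step 2: Expose to compound for 48 hours at 5 concentrations. Step 3: Interpolate endpoints linearly; if unreached, use highest concentration. TGI denotes the concentration required for complete inhibition of growth.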
Key:
Test in all cases: NCI tumour cell line growth inhibition, 48 h
SNB-19 CNS = system: SNB-19 CNS
NCI-H522 lung = system: NCI-H522 lung
SF-295 CNS = system: SF-295 CNS
OVCAR-8 ovarian = system: OVCAR-8 ovarian
M14 melanoma = system: M14 melanoma
SN12C renal = system: SN12C renal
MOLT-4 leukemia = system: MOLT-4 leukemia
SNB-75 CNS = system: SNB-75 CNS
RXF 393 renal = system: RXF 393 renal

Compound	TGI (SNB-19 CNS) [µM]	TGI (NCI-H522 lung) [µM]	TGI (SF-295 CNS) [µM]	TGI (OVCAR-8 ovarian) [µM]	TGI (M14 melanoma) [µM]	TGI (SN12C renal) [µM]	TGI (MOLT-4 leukemia) [µM]	TGI (SNB-75 CNS) [µM]	TGI (RXF 393 renal) [µM]
O=C(Nc1c(O)[nH]c(=S)[nH]c1=O)c1ccccn1	> 100	> 100	> 100	> 100	> 100	> 100	> 100	> 100	–
CN(C)CC(/C(Cc1ccccc1)=N\NC(=O)C[n+]1ccccc1)c1ccccc1 (centres undefined)	> 100	> 100	> 100	> 100	> 100	> 100	> 100	> 100	> 100
O=C(O)c1ccccc1Cc1ccco1	> 100	> 100	> 100	> 100	> 100	> 100	> 100	> 100	> 100
CC1=CC2CC(C)=C(CC[C@]3(C)CC[C@H]([C@@H](C)C(=O)O)OO3)C(C)(C)C2CC1 (some centres undefined)	3.08	0.383	2.67	1.31	2.67	1.9	–	2.29	1.09
O=C(CC1=Nc2nnc(-c3nnc4n3C(=O)C(CC(=O)c3cccnc3)=N4)n2C1=O)c1cccnc1	> 100	> 100	> 100	–	> 100	> 100	> 100	> 100	> 100
N#C/C(=C\c1ccccc1O)C(N)=O	> 100	> 100	> 100	> 100	> 100	> 100	> 100	69.7	87.5
O=C1c2ccccc2C2(O)Nc3cc(O)ccc3C12O (centres undefined)	> 100	> 100	> 100	> 100	> 100	> 100	> 100	> 100	> 100
N=C(c1ccccc1)N(c1ccccc1)c1ccccc1	> 100	> 100	> 100	> 100	> 100	> 100	–	> 100	> 100
N#Cc1cccc(N2C(=O)c3c(c(-c4ccccc4)c(-c4ccc(Sc5ccc(-c6c(-c7ccccc7)c7c(c(-c8ccccc8)c6-c6ccccc6)C(=O)N(c6cccc(C#N)c6)C7=O)cc5)cc4)c(-c4ccccc4)c3-c3ccccc3)C2=O)c1	> 100	> 100	> 100	> 100	> 100	> 100	> 100	–	59.2
Cc1ccc(C(=O)O/N=C2/CCCC/C2=C\c2ccccc2)cc1	> 100	31.7	> 100	> 100	> 100	> 100	–	> 100	> 100
C1=C(c2ccccc2)CN(c2ccccc2)OC1	> 100	> 100	–	–	> 100	> 100	> 100	> 100	> 100
Cc1cccc(C(=O)c2cccc3ccccc23)c1C(=O)O	> 100	> 100	> 100	> 100	> 100	> 100	> 100	> 100	> 100
CCOc1ccccc1NC(=O)CCC(=O)OC	> 100	> 100	> 100	> 100	> 100	> 100	> 100	> 100	> 100
Cc1ccc(C)c(NC(=O)C(=O)CC(=O)C2CCOC2=O)c1 (centres undefined)	> 100	> 100	> 100	> 100	> 100	> 100	–	> 100	> 100
COc1ccc(S(=O)(=O)NC(C)C(=O)O)cc1 (centres undefined)	> 100	> 100	> 100	> 100	> 100	> 100	> 100	> 100	> 100
O=C1OC(=O)c2c1c(-c1ccccc1)cn2-c1ccc(Cl)cc1	> 100	> 100	> 100	> 100	> 100	> 100	> 100	> 100	–
C#CCC[C@@H]1O[C@@]1(C)CC/C=C(\C)CC/C=C/C=O	> 100	–	79.4	38.3	48.3	> 100	52.9	> 100	> 100
COc1c2c(c3c(c1C1OC(C)[C@@H](C)O1)CC(C)(C)O3)C(=O)c1ccccc1C2=O (some centres undefined)	> 100	–	> 100	> 100	> 100	> 100	–	> 100	> 100

Reference: PubChem BioAssay (NCI)
